Experimental data published in BindingDB's records for doi:10.1021/jm960063l (Institute, 1996).

Key:
[1] = Inhibitory constant for RTX binding to porcine spinal cord
[2] = Inhibition of [3H]- RTX binding to Vanilloid receptors from pig spinal cord

Question: With `COc1cc(CC(=O)OCC2=C[C@H]3C4C(C)(C)[C@]4(OC(C)=O)[C@H](OC(=O)Cc4ccccc4)[C@@H](C)[C@]3(O)[C@@H]3C=C(C)C(=O)[C@@]3(O)C2)ccc1O` (stereo partly drawn) [Phenyl-acetic acid (1aR,1bS,4aR,7aS,7bS,8R,9R,9aS)-9a-acetoxy-4a,7b-dihydroxy-3-[2-(4-hydroxy-3-methoxy-phenyl)-acetoxymethyl]-1,1,6,8-tetramethyl-5-oxo-1a,1b,4,4a,5,7a,7b,8,9,9a-decahydro-1H-cyclopropa[3,4]benzo[1,2-e]azulen-9-yl ester] as the compound, how does the Ki [1] read?
Answer: Its Ki is 0.12 nM.

Question: What about the Ki [2] of the same compound?
Answer: Its Ki is 2100 nM.
